The results in this text go back to BindingDB's records for doi:10.1021/jm9608523 (Merck Sharp & Dohme Research Laboratories, 1997).

SMILES strings stand for the structures.

This test addresses Gastrin/cholecystokinin type B receptor (Cavia porcellus). The experiment in a line: Inhibition of ligand binding to Cholecystokinin type B receptor from guinea pig cortical membrane.
In the case of `CCCN1C(=O)[C@H](NC(=O)Nc2cccc(C)c2)N=C([C@H]2CCCCN2)c2ccccc21` [1-((R)-2-Oxo-5-(R)-piperidin-2-yl-1-propyl-2,3-dihydro-1H-benzo[e][1,4]diazepin-3-yl)-3-m-tolyl-urea], the IC50 was 36 nM. In other words, the double-digit nanomolar range. `CCCN1C(=O)[C@H](NC(=O)Nc2cccc(C)c2)N=C([C@@H]2CCCCN2)c2ccccc21` [1-((R)-2-Oxo-5-(S)-piperidin-2-yl-1-propyl-2,3-dihydro-1H-benzo[e][1,4]diazepin-3-yl)-3-m-tolyl-urea] returned a 50% inhibitory concentration (IC50) of 41 nM. Compound `CCCN1C(=O)[C@H](NC(=O)Nc2cccc(C)c2)N=C([C@H]2CCC(C)(C)CCN2C)c2ccccc21` [1-[(R)-2-Oxo-1-propyl-5-((R)-1,5,5-trimethyl-azepan-2-yl)-2,3-dihydro-1H-benzo[e][1,4]diazepin-3-yl]-3-m-tolyl-urea] gave an IC50 of 26 nM. For the compound `CCCN1C(=O)[C@H](NC(=O)Nc2cccc(C)c2)N=C([C@H]2CCCCN2C)c2ccccc21` [1-[(R)-5-((R)-1-Methyl-piperidin-2-yl)-2-oxo-1-propyl-2,3-dihydro-1H-benzo[e][1,4]diazepin-3-yl]-3-m-tolyl-urea], the IC50 was determined as 54 nM.

Take `CCCN1C(=O)[C@H](NC(=O)Nc2cccc(C)c2)N=C([C@H]2CC(C)(C)CCN2)c2ccccc21` [1-[(R)-5-((R)-4,4-Dimethyl-piperidin-2-yl)-2-oxo-1-propyl-2,3-dihydro-1H-benzo[e][1,4]diazepin-3-yl]-3-m-tolyl-urea]: the IC50 amounted to 1.5 nM. The compound `Cc1cccc(NC(=O)N[C@@H]2N=C([C@H]3CCC(C)(C)CCN3)c3ccccc3N(C)C2=O)c1` [1-[(R)-5-((R)-5,5-Dimethyl-azepan-2-yl)-1-methyl-2-oxo-2,3-dihydro-1H-benzo[e][1,4]diazepin-3-yl]-3-m-tolyl-urea] came in with an IC50 of 12 nM. Compound `CCN(CC)C(=O)CN1C(=O)[C@H](NC(=O)Nc2cccc(C)c2)N=C(c2cccc[n+]2C)c2ccccc21` [2-[(R)-1-Diethylcarbamoylmethyl-2-oxo-3-(3-m-tolyl-ureido)-2,3-dihydro-1H-benzo[e][1,4]diazepin-5-yl]-1-methyl-pyridinium; iodide] registered a 50% inhibitory concentration (IC50) of 18 nM. This IC50 is about 1.5-fold higher than that of the compound before.

By IC50 is commonly meant the concentration that gives 50% inhibition. A lower IC50 goes with greater potency.
